Results taken from US20250019381A1, “PROCESS FOR THE […] OF 6-((3S,4S)-4-METHYL-1-(PYRIMIDIN-2-[…])PYRROLIDIN-3-YL)-3-(TETRAHYDROPYRAN-4-YL-7H-IMIDAZO[1,5-a]PYRAZIN-8-ONE” (Cardurion Pharmaceuticals, Inc., priority 2017, published 2025).

What was measured:
PDE1 = PDE1 inhibition IC50; type: biochemical
[1] = Blood Brain Barrier penetration: plasma and brain concentration; type: in vivo
[2] = Stability study of drug substance in polyethylene/aluminum pouches; type: physicochemical; settings: solid, ambient temperature and 40° C.-45° C. (no humidity control), 3-month period
Description: A stability study has been completed on Compound P3.1. Samples of Compound P3.1 were aliquoted into double-walled polyethylene pouches, which were tied off and then heat-scaled in an aluminum pouch. Samples were stored at ambient temperature and at 40° C.-45° C. (no humidity control) with testing performed over a 3-month period.

[3] = Stability study of solution in purified water; type: physicochemical; settings: approximately 40 mg/mL in purified water, refrigerated and ambient, 8 days
Description: In another stability study, Compound P3.1 was dissolved at approximately 40 mg/mL of purified water and evaluated for purity over a period of 8 days. Samples were stored at both refrigerated and ambient conditions, and tested at T=0, Day 2, and Day 8.

PDE9 = PDE9 (Homo sapiens (Human), UniProt O76083); type: biochemical
PDE9, sequence (O76083 whole entry): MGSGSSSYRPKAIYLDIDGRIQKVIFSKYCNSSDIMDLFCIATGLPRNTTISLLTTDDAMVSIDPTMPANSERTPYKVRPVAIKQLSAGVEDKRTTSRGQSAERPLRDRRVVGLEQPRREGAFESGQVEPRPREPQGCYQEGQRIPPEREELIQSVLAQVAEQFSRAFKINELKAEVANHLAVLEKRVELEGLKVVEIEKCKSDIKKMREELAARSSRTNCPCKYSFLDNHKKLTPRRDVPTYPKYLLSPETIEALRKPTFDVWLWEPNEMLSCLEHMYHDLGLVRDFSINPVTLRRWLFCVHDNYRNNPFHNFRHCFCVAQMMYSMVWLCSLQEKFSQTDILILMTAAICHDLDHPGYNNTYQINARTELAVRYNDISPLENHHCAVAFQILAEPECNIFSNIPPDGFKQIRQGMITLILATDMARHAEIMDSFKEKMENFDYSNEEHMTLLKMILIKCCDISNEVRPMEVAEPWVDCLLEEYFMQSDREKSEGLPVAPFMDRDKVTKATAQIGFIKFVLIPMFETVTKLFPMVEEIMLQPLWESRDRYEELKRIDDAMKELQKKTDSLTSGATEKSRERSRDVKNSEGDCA

| Compound | IC50 (PDE1) [µM] | Brain concentration after 30 minutes ([1]; 30 min) | Brain concentration after 120 minutes ([1]; 120 min) | Plasma concentration after 120 minutes ([1]; plasma, 120 min) | other results |
| --- | --- | --- | --- | --- | --- |
| C[C@@H]1CN(Cc2ncccn2)C[C@H]1c1nc2c(cnn2C2CCOCC2)c(=O)[nH]1 (relative stereo) | 2.5 |  |  |  |  |
| O=c1[nH]c(CN2CC(Oc3ccncc3)C2)cn2c(-c3ccc(F)cc3)ncc12 [Compound P1] |  |  |  |  | Brain/Plasma ratio after 30 minutes ([1]; 30 min): 0.06; Brain/Plasma ratio after 120 minutes ([1]; 120 min): 0.08 |
| O=c1[nH]c(CN2CC(Oc3cccnc3)C2)cn2c(C3CCOCC3)ncc12 [Compound P2] |  | Below | Below |  |  |
| C[C@@H]1CN(Cc2ncccn2)C[C@H]1c1cn2c(C3CCOCC3)ncc2c(=O)[nH]1 [Compound P3.1, (3S,4S)-6-(4-methyl-1-pyrimidin-2-ylmethyl-pyrrolidin-3-yl)-3-(tetrahydro-pyran-4-yl)-7H-imidazo[1,5-a]pyrazin-8-one] | 3 | 30 min.: 67 ng/mL | 120 min.: 7 ng/mL | 120 min.: 226 ng/mL | Changes to appearance or purity of the material on storage [2]: no changes to appearance or purity; Change to purity of the compound or appearance of the solution [3]: No significant change; Plasma concentration after 30 minutes ([1]; plasma, 30 min): 30 min.: 1620 ng/mL; IC50 (PDE9): 0.01 µM |
| O=c1[nH]c(CN2CC(OCc3ccc(F)cc3)C2)nn2c(C3CCOCC3)ncc12 [Compound P4] |  |  |  | 120 min.: 352 ng/mL |  |
